Assay [1] deals with Chymotrypsin. The experiment in a line: Inhibition of enzymatic degradation of a model GLP-1 (FRET substrate) by chymotrypsin. As to conditions: for EC50: read-out: EC50 Chymotrypsin (0.001 mg/ml), 0.001 mg/ml chymotrypsin, 37° C., ± standard error if at least 3 measurements. It is filed as biochemical. The source says:
(§1) The use of Förster resonance energy transfer (FRET), also known as fluorescence resonance energy transfer, substrates to monitor activity of proteolytic enzymes is known in the field (for example Anjuere, F. et al. (1993). Biochem J 291 (Pt 3), 869-73).
(§2) Model GLP-1 analogue was designed as FRET substrate by incorporation of 7-Methoxycoumarin-4-acetic acid (MCA) group as the donor chromophore and dinitrophenol group (DNP) as the acceptor chromophore.
(§3) An assay following the increase in fluorescence as a function of time was established in 96 well format using Varioskan Flash Multimode Meter (Thermo Scientific). Each well contained 70 μl of Dulbecco's phosphate buffer saline (Invitrogen catalogue #14190-094), 10 μl of 100 μM GLP-1 FRET substrate, 10 μl of N-terminally acylated peptide or oligopeptide of the invention in varying concentration and 10 μl of a stock solution of an enzyme (chymotrypsin, trypsin, elastase, etc.). The incubations were performed at 37° C. Fluorescence (320 nm excitation wavelength and 405 nm emission wavelength) was measured immediately after addition of the enzyme to the 96 well plate and also every minute for at least the next 30 minutes. The concentration of the enzyme was optimized to allow determination of slopes for the time course of initial fluorescence increase with and without the N-terminally acylated peptides or oligopeptides of the invention. The slopes were determined by linear regression of the linear part of the fluorescence trace (for example, the first 10 min of the reaction). Each assay was performed in duplicate and average of the two traces was included in the calculations. The relative effect of N-terminally acylated peptide or oligopeptides of the invention on enzymatic degradation of GLP-1 FRET substrate was obtained by comparison of the slopes achieved by the same concentration of the N-terminally acylated peptide or oligopeptides. […] This was done by plotting the slopes achieved with different concentrations of the N-terminally acylated peptide or oligopeptides of the invention as a function of their concentrations and fitting the experimental results using, for example, sigmoidal logistic regression (2 parameters, Sigma Plot v 11). Inhibition constants for the interaction between the N-terminally acylated peptide or oligopeptides of the invention and proteolytic enzymes were also obtained by performing the assay described above with varying concentrations of the inhibitor and substrate and analyzing the results, for example, by double reciprocal transformation as known to the person skilled in the art and described for example in Hubalek, F. et al., J. Med. Chem. 47, 1760-1766 (2004).
(§4) The EC50 was determined for the following compounds. EC50±standard error is reported if the results of at least 3 independent measurements were available.

For assay [2], the system named is Trypsin. The experiment in a line: Inhibition of enzymatic degradation of a model GLP-1 (FRET substrate) by trypsin. Conditions: for EC50: read-out: EC50 Trypsin (0.001 mg/ml), 0.001 mg/ml trypsin, 37° C. The assay is classed as biochemical.
Excerpt: as §1, §2, §3, §4

Where [3] appears, read: compound 0.1 mM, buffer containing 8% DMSO.

Starred links: 1 amine or outer side, 2 acyl side, 3 side chain; linkers in the order of their positions; H or OH if unused. Non-standard residues stand in square brackets, D forms with d. Primed or numbered codes have the meaning given here. No end group written: not given here. *: point of attachment. γGlu = O=C(O)[C@H](CCC(=O)[*:2])N[*:1]; Stearoyl = CCCCCCCCCCCCCCCCCC(=O)*; Palmitoyl = CCCCCCCCCCCCCCCC(=O)*; Myristoyl = CCCCCCCCCCCCCC(=O)*; Lauroyl = CCCCCCCCCCCC(=O)*; PEG12′ = not defined here

Turning to “N-dodecanoyl-Ala-Ala-Ala-Ala-Ala-Pro-Phe-OH [Example 141]”, the results for the EC50 in assay [1] and in assay [2] were 57 µM and 187 µM, respectively.

For “N-dodecanoyl-Ala-Ala-Pro-His-OH (Lauroyl-AAPH-OH; SMILES CCCCCCCCCCCC(=O)N[C@@H](C)C(=O)N[C@@H](C)C(=O)N1CCC[C@H]1C(=O)N[C@@H](Cc1c[nH]cn1)C(=O)O) [Example 180]”, in assay [1], the EC50 was greater than 500 µM.

As for “N-dodecanoyl-Ala-Pro-Phe-OH [Example 35]”, the EC50 in assay [1] was found to be 182 µM.

Regarding “N-dodecanoyl-Gly-Ala-Pro-Tyr-OH [Example 37]”, the “Slope of the initial increase in fluorescence obtained during incubation with 0.001 mg/ml Chymotrypsin” value in assay [1] (setting [3]) was 0.66. In addition, in assay [2] (setting [3]), the “Slope of the initial increase in fluorescence obtained during incubation with 0.001 mg/ml Trypsin” value came to 1.78.

Consider “N-dodecanoyl-Ile-Ala-Ala-Pro-Tyr-OH [Example 40]”, for which the “Slope of the initial increase in fluorescence obtained during incubation with 0.001 mg/ml Chymotrypsin” value in assay [1] (setting [3]) is listed as 0.41. In addition, in assay [2] (setting [3]), the “Slope of the initial increase in fluorescence obtained during incubation with 0.001 mg/ml Trypsin” value was found to be 1.31.

On to “N-dodecanoyl-Leu-Thr-Trp-Pro-Tyr-OH [Example 154]”, for which the EC50 in assay [1] was 27 µM; in assay [2] it was 151 µM.

In the case of “N-dodecanoyl-Lys-Ala-Ala-Pro-Tyr-OH [Example 44]”, in assay [1] (setting [3]), the “Slope of the initial increase in fluorescence obtained during incubation with 0.001 mg/ml Chymotrypsin” value was determined as 0.00. Moreover, in assay [2] (setting [3]), the “Slope of the initial increase in fluorescence obtained during incubation with 0.001 mg/ml Trypsin” value came to 0.96.

As to “N-dodecanoyl-Thr-Ala-Ala-Pro-Phe-OH [Example 172]”, the EC50 in assay [1] was 132 µM; in assay [2], 401 µM.

As to “N-dodecanoyl-βAla-βAla-Pro-Phe-Pro-OH [Example 6]”, the “Slope of the initial increase in fluorescence obtained during incubation with 0.001 mg/ml Chymotrypsin” value in assay [1] (compound 1 mM) was determined as 0.24. The “Slope of the initial increase in fluorescence obtained during incubation with 0.001 mg/ml Trypsin” value in assay [2] (compound 1 mM) was 0.35.

Regarding “N-dodecanoyl-γGlu-Ala-Ala-Pro-Arg-Pro-OH [Example 27]”, the EC50 in assay [1] is greater than 500 µM.

As for “N-dodecanoyl-γGlu-His-Ala-Ala-Pro-Tyr-OH [Example 190]”, in assay [1], the EC50 is greater than 500 µM.

With “N-hexadecanoyl-Ala-Ala-Pro-Phe-OH (Palmitoyl-AAPF-OH) [Example 29]”, the EC50 was 23 ± 2 µM in assay [1] and greater than 500 µM in assay [2].

For the substance “N-hexadecanoyl-Glu-Ala-Ala-Pro-D-Phe-OH [Example 144]”, the values for the EC50 in assay [1] and in assay [2] were 40 µM and 72 µM, respectively.

Take “N-hexadecanoyl-Glu-Ala-Ala-Pro-D-Phe-OH [Example 186]”: the EC50 in assay [1] was 56 µM.

In the case of “N-hexadecanoyl-Thr-Ala-Ala-Pro-Phe-OH [Example 175]”, the results for the EC50 in assay [1] and in assay [2] were 17 µM and 31 µM, respectively.

For “N-hexadecanoyl-γGlu-Ala-Ala-Pro-Phe-OH [Example 32]”, the EC50 in assay [1] is 29 ± 4 µM; in assay [2], 66 µM.

In the case of “N-hexadecanoyl-γGlu-Ala-Ala-Pro-Phe-OH [Example 188]”, the EC50 in assay [1] was determined as 71 µM; in assay [2], 67 µM.

With “N-hexadecanoyl-γGlu-Ala-Pro-Phe-OH (Palmitoyl-[γGlu]APF-OH; SMILES CCCCCCCCCCCCCCCC(=O)N[C@@H](CCC(=O)N[C@@H](C)C(=O)N1CCC[C@H]1C(=O)N[C@@H](Cc1ccccc1)C(=O)O)C(=O)O) [Example 149]”, the EC50 in assay [1] came out at 48 µM; in assay [2], 57 µM.

As for “N-hexadecanoyl-γGlu-D-Ala-D-Ala-D-Pro-D-Phe-OH [Example 157]”, the EC50 in assay [1] was 57 µM; in assay [2], 88 µM.

Regarding “N-hexadecanoyl-γGlu-D-Ala-D-Pro-D-Phe-OH [Example 182]”, the EC50 in assay [1] was determined as 67 µM; in assay [2], 33 µM.

With “N-hexadecanoyl-γGlu-DAla-DPro-DPhe-OH [Example 155]”, the EC50 in assay [1] was 56 µM; in assay [2], 76 µM.

For “N-icosanoyl-γGlu-Ala-Ala-Pro-Phe-OH [Example 161]”, the values for the EC50 in assay [1] and in assay [2] were 4 µM and 7 µM, respectively.

As for “N-icosanoyl-γGlu-Ala-Pro-Phe-OH (icosanoyl-[γGlu]APF-OH) [Example 151]”, the EC50 in assay [1] is 9 µM; in assay [2], 13 µM.

In the case of “N-octadecanoyl-γGlu-Ala-Ala-Pro-Phe-OH [Example 160]”, the EC50 in assay [1] was 17 µM; in assay [2], 16 µM.

As for “N-octadecanoyl-γGlu-Ala-Pro-Phe-OH (Stearoyl-[γGlu]APF-OH; SMILES CCCCCCCCCCCCCCCCCC(=O)N[C@@H](CCC(=O)N[C@@H](C)C(=O)N1CCC[C@H]1C(=O)N[C@@H](Cc1ccccc1)C(=O)O)C(=O)O) [Example 150]”, the EC50 in assay [1] is 13 µM; in assay [2] it was 22 µM.

For “N-tetradecanoy-γGlu-His-Ala-Ala-Pro-Tyr-OH [Example 191]”, the EC50 turned out to be 136 µM in assay [1] and 177 µM in assay [2].

On to “N-tetradecanoyl-Ala-Ala-Ala-Ala-Pro-Phe-OH [Example 140]”, for which the EC50 worked out at 28 µM in assay [1] and 374 µM in assay [2].

As to “N-tetradecanoyl-Ala-Ala-Pro-D-Phe-OH [Example 185]”, the EC50 came to 73 µM in assay [1] and 44 µM in assay [2].

With “N-tetradecanoyl-Arg-His-Ala-Arg-Pro-Phe-OH [Example 197]”, the EC50 in assay [1] amounted to 2 µM; in assay [2], 16 µM.

In the case of “N-tetradecanoyl-D-Ala-D-Ala-D-Pro-D-Phe-OH [Example 184]”, the EC50 in assay [1] was determined as 69 µM; in assay [2], 38 µM.

“N-tetradecanoyl-D-His-D-Ala-D-Arg-D-Pro-D-Phe-OH [Example 195]”: the values for the EC50 in assay [1] and in assay [2] were 17 µM and 7 µM, respectively.

With “N-tetradecanoyl-Glu-Ala-Ala-Pro-D-Phe-OH [Example 174]”, the EC50 in assay [1] was 211 µM.

Turning to “N-tetradecanoyl-Glu-Ala-Ala-Pro-Phe-OH [Example 162]”, the values for the EC50 in assay [1] and in assay [2] were 94 µM and 58 µM, respectively.

For the substance “N-tetradecanoyl-Glu-Ala-Ala-Pro-Phe-OH [Example 163] (Myristoyl-EAAPF-OH; SMILES CCCCCCCCCCCCCC(=O)N[C@@H](CCC(=O)O)C(=O)N[C@@H](C)C(=O)N[C@@H](C)C(=O)N1CCC[C@H]1C(=O)N[C@@H](Cc1ccccc1)C(=O)O)”, the results for the EC50 in assay [1] and in assay [2] were 94 µM and 271 µM, respectively.

As to “N-tetradecanoyl-Glu-Ala-Ala-Pro-Trp-OH [Example 143]”, the EC50 in assay [1] came out at 14 µM; in assay [2], 388 µM.

With “N-tetradecanoyl-Glu-Ala-Ala-Pro-Trp-OH [Example 187]”, the results for the EC50 in assay [1] and in assay [2] were 14 µM and 130 µM, respectively.

In the case of “N-tetradecanoyl-Glu-Ala-Pro-Phe-OH (Myristoyl-EAPF-OH; SMILES CCCCCCCCCCCCCC(=O)N[C@@H](CCC(=O)O)C(=O)N[C@@H](C)C(=O)N1CCC[C@H]1C(=O)N[C@@H](Cc1ccccc1)C(=O)O) [Example 152]”, the EC50 in assay [1] turned out to be 293 µM.

With “N-tetradecanoyl-His-Ala-Ala-Pro-Phe-OH [Example 166]”, the EC50 in assay [1] is 61 µM; in assay [2], 69 µM.

In the case of “N-tetradecanoyl-His-Ala-Trp-Pro-Phe-OH [Example 192]”, the EC50 in assay [1] was 34 µM; in assay [2], 303 µM.

Take “N-tetradecanoyl-Leu-Ala-Ala-Pro-Tyr-OH [Example 142]”: the results for the EC50 in assay [1] and in assay [2] were 20 µM and 37 µM, respectively.

As to “N-tetradecanoyl-Leu-Ala-Ala-Pro-Tyr-OH [Example 159]”, the EC50 was 35 µM in assay [1] and 122 µM in assay [2].

On to “N-tetradecanoyl-Leu-betaAla-Ala-Pro-DPhe-OH [Example 145]”, for which the EC50 stood at 83 µM in assay [1] and 43 µM in assay [2].

Turning to “N-tetradecanoyl-γGlu-Ala-Pro-D-Phe-OH [Example 168]”, the EC50 in assay [1] is 377 µM.

Take “N-tetradecanoyl-γGlu-Ala-Pro-Phe-OH [Example 181]”: the EC50 in assay [1] came to 300 µM.

Regarding “N-tetradecanoyl-γGlu-D-Ala-D-Pro-D-Phe-OH [Example 183]”, the EC50 in assay [1] was 386 µM.

Regarding “N-tetradecanoyl-γGlu-γGlu-Ala-Pro-Phe-OH [Example 169]”, the EC50 in assay [1] stood at 287 µM.

Turning to “N-tetradecanoyl-γGlu-γGlu-Phe-Phe-OH [Example 171]”, the EC50 in assay [1] turned out to be 452 µM.

For the substance “N-tetradecanoyl-γGlu-γGlu-Pro-Phe-OH [Example 170]”, the EC50 in assay [1] was greater than 500 µM.

Turning to “PEG12-Ala-Ala-Pro-Phe-OH ([PEG12′]AAPF-OH) [Example 167]”, in assay [1], the EC50 is greater than 500 µM.

For the origin of these results see patent US20150038435A1, “N-TERMINALLY MODIFIED OLIGOPEPTIDES AND USES THEREOF” (Novo Nordisk A/S, priority 2012, published 2015).
